Measured values: patent publication US20060235062A1, “Novel heterocyclic analogs of diphenylethylene compounds” (THERACOS, INC., priority 2002, published 2006)

Tests used:
Human PPAR-γ2 = biological target: T1, Human PPAR-γ2 (Homo sapiens, UniProt P37231); assay: PPAR-gamma mediated transactivation of PPRE-luciferase reporter; type: cell-based; conditions: for EC50: cells transfected with human PPAR-gamma2, 24 hours, non-linear regression, read-out: EC50, induction of PPAR-γ mediated luciferase activity
T1 construct: inserting the PPARγ2 cDNA coding region into pcDNA3.1+ vector; expressed in transfected cells; host or cells: HEK293 cells (ATCC)
T1 sequence (P37231 1-505): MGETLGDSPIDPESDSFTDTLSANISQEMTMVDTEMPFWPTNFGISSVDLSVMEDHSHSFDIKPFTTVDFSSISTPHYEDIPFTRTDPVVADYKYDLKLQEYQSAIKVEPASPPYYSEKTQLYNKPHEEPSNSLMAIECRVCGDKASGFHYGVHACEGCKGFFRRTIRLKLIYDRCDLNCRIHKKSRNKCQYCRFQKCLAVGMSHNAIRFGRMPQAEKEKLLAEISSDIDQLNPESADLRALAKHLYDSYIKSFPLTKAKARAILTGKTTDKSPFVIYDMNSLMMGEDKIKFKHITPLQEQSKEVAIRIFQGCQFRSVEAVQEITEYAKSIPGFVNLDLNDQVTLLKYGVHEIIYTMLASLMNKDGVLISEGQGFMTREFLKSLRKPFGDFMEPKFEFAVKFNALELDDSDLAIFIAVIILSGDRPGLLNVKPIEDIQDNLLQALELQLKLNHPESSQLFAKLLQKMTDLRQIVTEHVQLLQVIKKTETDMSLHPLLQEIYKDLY
Procedure: Human PPAR-γ2 expression vector was constructed by inserting PPAR-γ2 encoding region into pcDNA3.1+ vector (Invitrogen, Carlsbad, Calif.). Luciferase reporter vector was constructed by ligating PPRE response element adjacent to the upstream of Firefly luciferase coding region. Control vector, pRL-SV40 expressing Renilla luciferase was purchased from Promega (Madison, Wis.).
About 2.7×10^4 293 cells (ATCC, Manassas, Va.) were plated into a 35 mm culture well and maintained in Eagle's Minimal Essential Medium (ATCC, Manassas, Va.) supplemented with 10% heat inactivated horse serum (ATCC, Manassas, Va.) for 24 hours. Expression, reporter and control vectors (2.5 ng control and 100 ng others per culture well) were transfected by LI[…]™ Reagent (Invitrogen, Carlsbad, Calif.). Transfection reagent and DNA were prepared according to manufacture's recommendations and incubated with cells for 3 hours followed by adding equal volume EMEM supplemented with 20% horse serum. Twenty-four hours after transfection, cells were treated with vehicle or compounds at indicated final concentration for 24 hours. Final concentration of vehicle was 0.001% DMSO (Sigma, ST Louis, Mo.) in medium. Vehicle and compound treatment were all conducted in triplicate. Each culture well was then assayed for a response characterized by increased Firefly luciferase activity normalized with Renilla luciferase activity.
Assays for Firefly luciferase activity and Renilla luciferase activity followed the standard protocol of Dual-luciferase Reporter® Assay System (Promega, Madison, Wis.). Briefly, 400 μl Passive Lysis Buffer was added into each culture well and all wells were placed on a shaker for 15 minutes. Five μl cell lysate of each well was added to a reaction tube. Luciferase reagent II and Stop & Glo® were injected into the reaction tube sequentially by Sirius Luminometer (Berthold Detection Systems, Pforzheim, Germany). Final reporter activity was calculated as the ratio of Firefly luciferase activity over by Renilla luciferase activity.
Human PPARγ2 expression vector was constructed by inserting the PPARγ2 cDNA coding region into pcDNA3.1+ vector (Invitrogen, Carlsbad, Calif.). The PPRE-luciferase reporter gene was the kind gift of Dr. Kenneth Feingold. The control vector, pRL-SV40 containing the Renilla luciferase cDNA was purchased from Promega (Madison, Wis.). About 2.7×10^4 HEK293 human embryonal kidney cells (ATCC) were plated into a 35-mm tissue culture dish and maintained in Eagle Modified Essential Medium (EMEM, ATCC) containing 10% heat-inactivated horse serum for 24 h. Expression, reporter (100 ng/dish) and control (2.5 ng/dish) vectors were transfected using LI[…]™ Reagent (GibcoBRL) according to manufacturer's recommendation. At 24 h after transfection, cells were treated with vehicle (0.001% DMSO in medium) or compounds at the indicated concentration and incubated for 24 h. Each treatment was conducted in triplicate. Each culture dish was assayed for firefly luciferase activity normalized by Renilla luciferase activity to account for differences in transfection efficiency. Luciferase activity was measured using the Dual-luciferase Reporter® Assay System (Promega) and a Sirius luminometer (Berthold Detection System, Pforzheim, Germany).

3T3-L1 adipocytes = assay: Glucose uptake in differentiated 3T3-L1 adipocytes; type: cell-based; conditions: for % Glucose uptake 0.1 μm / % Glucose uptake 1.0 μm: average of quadruplicate ± SD
Procedure: Referring to FIG. 8 glucose uptake in 3T3-L1 differentiated adipocytes was measured after treatment with the test compound. The assay was conducted according to the method of Tafuri, Endocrinology, 137, 4706-4712 (1996). The serum-starved cells were treated with the test compound for 48 hours at different concentrations, then washed and incubated in glucose-free media for 30 minutes at 37° C. Then ^14C-deoxyglucose was added and uptake was monitored for 30 minutes under incubation. After washing, the cells were lysed (0.1% SIDS) and counted.
Basal glucose uptake was measured in differentiated 3T3-L1 adipocytes following the protocol of Tafuri (6) with modifications. Briefly, 3T3-L1 fibroblasts, obtained from ATCC (Manassas, Va.), were differentiated to adipocytes by treating cells with porcine insulin (1 μg/ml for 4 days), dexamethasone (0.25 μM for first 2 days) and isobutyl methyl xanthine (IBMX, 0.5 mM for first 2 days) (all from Sigma Chemicals, St Louis, Mo.) following the protocol of Frost and Lane (7). Differentiated adipocytes were incubated in Dulbecco's Modified Eagle Medium (DMEM) containing 10% fetal bovine serum (GibcoBRL, Gaithersburg, Md.) with various concentrations of Compound 11 or vehicle (0.1% DMSO) for 48 h in 24-well plates, in triplicate. Cells were washed with phosphate buffered saline (PBS, 150 mM NaCl, 1 mM KH2PO4, 3 mM Na2HPO4; pH 7.4) and incubated in glucose-free DMEM for 2 h at 37° C. The cells were washed 3 times with Krebs Ringer Phosphate Buffer (KRP). Glucose uptake was initiated by addition of 0.25 μCi 2-^14C(U)-deoxy-D-glucose (300 μCi/mmol, American Radiolabeled Chemicals Inc., St Louis, Mo.) per well and the cells incubated for 10 min at room temperature in the presence of 0.1 mmol cold 2-deoxy-D-glucose. Finally, the cells were washed three times with ice-cold PBS containing 10 mM cold glucose, lysed with 0.5% SDS, and counted in a scintillation counter (Beckman LS6500).

AIA rats = assay: Cancellous bone loss in adjuvant induced arthritic (AIA) rats, MicroCT of right proximal tibia; type: in vivo, male Lewis rats
NF-kB p65 = NF-kB p65 activation in LPS-stimulated RAW cells (ELISA); type: cell-based; conditions: 10 μM, 1 μg/ml LPS 15 min, FIG. 15

| Compound | EC50 (Human PPAR-γ2) | glucose uptake activity in words (3T3-L1 adipocytes; 1 μM) | % Glucose uptake 0.1 μm (3T3-L1 adipocytes) | % Glucose uptake 1.0 μm (3T3-L1 adipocytes) | PPAR-gamma agonist potency in words (Human PPAR-γ2; in vitro transactivation assay) | glucose uptake activity in words (3T3-L1 adipocytes; 0.1 μM) | other results |
| --- | --- | --- | --- | --- | --- | --- | --- |
| COC(=O)/C(=C\c1cc(OC)cc(OC)c1)c1ccc(Oc2ccc(CC3SC(=O)NC3=O)cc2)cc1 (stereo not shown) [Compound 23, Z-3-(3,5-Dimethoxyphenyl)-2-{4-[4-(2,4-dioxothiazolidin-5-ylmethyl)-phenoxy]-phenyl}-acrylic acid methyl ester] | 3.69 ± 1.45 µM | essentially inactive | 89.5 ± 5.6 % basal of the non treated cells | 118.0 ± 3.6 % basal of the non treated cells | – | – | PPAR-gamma transactivation potency relative to a comparator, in words (Human PPAR-γ2; in vitro transactivation assay): less than one-tenth the potency of compound 11 |
| Etanercept | – | – | – | – | – | – | less cancellous bone lost (AIA rats; AIA rats, treated vs vehicle): ~50%; C.Th (AIA rats; right proximal tibia): 198 ± 25 μm; Conn. Dens (AIA rats; right proximal tibia): 31.9 ± 19.7 l/mm3; SMI (0-3) (AIA rats; right proximal tibia): 2.8 ± 0.4; Tb.N (AIA rats; right proximal tibia): 2.8 ± 0.5 l/mm; BV/TV (AIA rats; right proximal tibia, compound 11 50 mg/kg oral, etanercept 1.67 mg/kg i.p., once daily): 12.9 ± 5.2% |
| COC(=O)C(Cc1cc(OC)cc(OC)c1)c1ccc(Oc2ccc(C=C3SC(=O)NC3=O)cc2)cc1 (stereo not shown) [Compound 17, 3-(3,5-Dimethoxyphenyl)-2-{4-[4-(2,4-dioxothiazolidin-5-ylidenemethyl)-phenoxy]-phenyl}-propionic acid methyl ester] | 23.9 µM | modest activity | 101.9 ± 6.8 % basal of the non treated cells | 130.0 ± 27.0 % basal of the non treated cells | essentially inactive | devoid of activity | – |
| COC(=O)C(=Cc1cc(OC)cc(OC)c1)c1ccc(Oc2ccc(C=C3SC(=O)NC3=O)cc2)cc1 [Compound 10, 3-(3,5-Dimethoxyphenyl)-2-{4-[4-(2,4-dioxothiazolidin-5-ylidenemethyl)-phenoxy]-phenyl}-acrylic acid methyl ester] | 1.14 µM | comparable to rosiglitazone | 142.6 ± 7.4 % basal of the non treated cells | 209.3 ± 22.6 % basal of the non treated cells | reasonable potency | retained activity, but less than that of rosiglitazone | – |
| COc1cc(C=C(C(=O)O)c2ccc(Oc3ccc(CC4SC(=O)NC4=O)cc3)cc2)cc(OC)c1 (stereo not shown) [Compound 14] | 0.69 ± 0.038 µM | comparable to rosiglitazone | 108.6 ± 19.9 % basal of the non treated cells | 199.5 ± 11.6 % basal of the non treated cells | reasonable potency | – | – |
| CCCCC/C=C/C=C1/C(=O)C=C[C@@H]1C/C=C\CCCC(=O)O [Compound 15dPGJ2, 15-deoxy-Δ^12,14-prostaglandin J2] | – | – | – | – | – | – | inhibition of the activation of NF-kB (p65) (NF-kB p65): inhibited |
| Insulin: insulin, comparator in the 3T3-L1 glucose uptake test | – | – | 335.2 ± 21.7 % basal of the non treated cells | 345.6 ± 8.3 % basal of the non treated cells | – | – | – |
| COC(=O)C(Cc1cc(OC)cc(OC)c1)c1ccc(Oc2ccc(CC3SC(=O)NC3=O)cc2)cc1 (stereo not shown) [Compound 18, 3-(3,5-Dimethoxyphenyl)-2-{4-[4-(2,4-dioxothiazolidin-5-ylmethyl)-phenoxy]-phenyl}-propionic acid methyl ester] | 57.7 µM | modest activity | 104.4 ± 5.7 % basal of the non treated cells | 137.0 ± 10.1 % basal of the non treated cells | essentially inactive | devoid of activity | – |
